Literature values, collected in patent US20230117831A1, “MULTI-FUNCTIONAL CHIMERIC MOLECULES” (THE BROAD INSTITUTE, INC., priority 2020, published 2023).
Several values for one entry are separate records, joined by “and”; a condition that tells them apart may be missing. Identical values can stand only once.

Experiments:
PKCalpha = PKCalpha (Homo sapiens, UniProt P17252); conditions: PKC alpha; read-out: Kd; cited from earlier work
AurA (AURKA) = biological target: T1, AurA (AURKA) (Homo sapiens, UniProt O14965); conditions: cited from earlier work
T1 sequence (O14965 1-403): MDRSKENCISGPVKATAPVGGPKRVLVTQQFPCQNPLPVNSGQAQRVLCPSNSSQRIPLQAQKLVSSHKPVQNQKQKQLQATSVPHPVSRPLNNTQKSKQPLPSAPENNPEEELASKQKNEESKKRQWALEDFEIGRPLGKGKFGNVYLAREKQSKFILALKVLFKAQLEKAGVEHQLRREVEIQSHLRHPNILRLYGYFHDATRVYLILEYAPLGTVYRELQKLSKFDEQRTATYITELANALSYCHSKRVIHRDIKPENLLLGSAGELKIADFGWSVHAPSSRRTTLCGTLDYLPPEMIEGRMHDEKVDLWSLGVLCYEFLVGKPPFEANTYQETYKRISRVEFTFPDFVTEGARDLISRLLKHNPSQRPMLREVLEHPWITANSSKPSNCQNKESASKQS

AurB (AURKB) = AurB (AURKB) (Homo sapiens, UniProt Q96GD4); conditions: cited from earlier work
Chain of AurB (AURKB) (Q96GD4 whole entry, species assumed): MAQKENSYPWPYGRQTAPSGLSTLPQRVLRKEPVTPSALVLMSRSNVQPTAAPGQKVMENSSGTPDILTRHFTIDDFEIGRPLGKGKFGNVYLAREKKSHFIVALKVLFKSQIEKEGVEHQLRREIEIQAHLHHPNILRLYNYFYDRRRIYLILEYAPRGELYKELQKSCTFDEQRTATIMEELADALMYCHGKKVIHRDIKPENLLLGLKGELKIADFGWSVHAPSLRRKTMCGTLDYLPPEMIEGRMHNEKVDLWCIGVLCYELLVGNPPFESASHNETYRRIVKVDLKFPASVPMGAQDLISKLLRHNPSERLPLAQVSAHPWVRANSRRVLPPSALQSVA

PIK3Cα/PIK3R1 = PIK3Cα/PIK3R1 (Homo sapiens, UniProt P42336); conditions: cited from earlier work
Chain of PIK3Cα/PIK3R1 (P42336 whole entry): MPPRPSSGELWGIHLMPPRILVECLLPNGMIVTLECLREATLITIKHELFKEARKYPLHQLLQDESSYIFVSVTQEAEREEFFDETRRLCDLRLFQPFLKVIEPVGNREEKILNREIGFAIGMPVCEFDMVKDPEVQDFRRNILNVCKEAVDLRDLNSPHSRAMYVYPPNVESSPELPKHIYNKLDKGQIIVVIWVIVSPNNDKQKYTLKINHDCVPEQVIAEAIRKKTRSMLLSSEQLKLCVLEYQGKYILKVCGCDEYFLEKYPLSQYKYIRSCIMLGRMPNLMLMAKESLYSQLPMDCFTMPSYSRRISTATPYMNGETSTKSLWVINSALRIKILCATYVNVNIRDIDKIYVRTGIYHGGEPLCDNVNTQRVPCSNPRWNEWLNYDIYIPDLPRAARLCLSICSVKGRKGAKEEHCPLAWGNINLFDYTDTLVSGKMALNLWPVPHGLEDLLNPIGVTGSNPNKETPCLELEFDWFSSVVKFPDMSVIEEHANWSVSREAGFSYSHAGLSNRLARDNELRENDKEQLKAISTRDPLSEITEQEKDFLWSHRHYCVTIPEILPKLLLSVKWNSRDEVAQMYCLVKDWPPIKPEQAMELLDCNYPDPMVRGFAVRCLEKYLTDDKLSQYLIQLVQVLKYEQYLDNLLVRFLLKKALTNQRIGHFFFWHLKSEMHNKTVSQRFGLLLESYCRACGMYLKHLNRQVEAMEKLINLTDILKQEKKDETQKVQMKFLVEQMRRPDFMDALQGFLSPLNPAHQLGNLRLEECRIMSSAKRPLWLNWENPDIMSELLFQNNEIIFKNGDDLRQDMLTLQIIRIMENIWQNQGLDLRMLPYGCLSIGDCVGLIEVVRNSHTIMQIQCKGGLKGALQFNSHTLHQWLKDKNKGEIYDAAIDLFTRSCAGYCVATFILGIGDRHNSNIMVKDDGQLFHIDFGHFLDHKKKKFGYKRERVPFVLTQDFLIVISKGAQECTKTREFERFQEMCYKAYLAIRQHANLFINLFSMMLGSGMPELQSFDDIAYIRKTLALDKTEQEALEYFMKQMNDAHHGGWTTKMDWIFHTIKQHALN
Chain of PIK3Cα/PIK3R1 (P27986 whole entry partner): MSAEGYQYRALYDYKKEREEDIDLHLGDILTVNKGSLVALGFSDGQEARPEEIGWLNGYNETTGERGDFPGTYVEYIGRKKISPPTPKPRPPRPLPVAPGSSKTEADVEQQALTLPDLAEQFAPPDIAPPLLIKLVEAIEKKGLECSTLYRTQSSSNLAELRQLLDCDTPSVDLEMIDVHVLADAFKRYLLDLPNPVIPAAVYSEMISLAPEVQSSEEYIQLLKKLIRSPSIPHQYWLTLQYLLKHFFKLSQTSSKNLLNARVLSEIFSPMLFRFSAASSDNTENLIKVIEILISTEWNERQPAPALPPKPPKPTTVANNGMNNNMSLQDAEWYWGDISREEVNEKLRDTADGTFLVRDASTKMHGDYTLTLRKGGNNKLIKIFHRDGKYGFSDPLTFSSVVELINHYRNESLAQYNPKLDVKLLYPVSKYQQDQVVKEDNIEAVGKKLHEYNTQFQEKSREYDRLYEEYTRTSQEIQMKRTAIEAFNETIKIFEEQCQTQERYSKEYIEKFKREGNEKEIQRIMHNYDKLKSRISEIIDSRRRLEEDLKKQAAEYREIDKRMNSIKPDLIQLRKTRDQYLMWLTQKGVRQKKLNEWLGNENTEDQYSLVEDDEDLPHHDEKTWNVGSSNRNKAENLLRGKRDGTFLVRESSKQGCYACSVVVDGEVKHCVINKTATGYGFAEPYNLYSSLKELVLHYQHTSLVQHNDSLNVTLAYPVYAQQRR

PIK3Cδ/PIK3R1 = PIK3Cδ/PIK3R1 (Homo sapiens, UniProt O00329); conditions: cited from earlier work
Chain of PIK3Cδ/PIK3R1 (O00329 whole entry): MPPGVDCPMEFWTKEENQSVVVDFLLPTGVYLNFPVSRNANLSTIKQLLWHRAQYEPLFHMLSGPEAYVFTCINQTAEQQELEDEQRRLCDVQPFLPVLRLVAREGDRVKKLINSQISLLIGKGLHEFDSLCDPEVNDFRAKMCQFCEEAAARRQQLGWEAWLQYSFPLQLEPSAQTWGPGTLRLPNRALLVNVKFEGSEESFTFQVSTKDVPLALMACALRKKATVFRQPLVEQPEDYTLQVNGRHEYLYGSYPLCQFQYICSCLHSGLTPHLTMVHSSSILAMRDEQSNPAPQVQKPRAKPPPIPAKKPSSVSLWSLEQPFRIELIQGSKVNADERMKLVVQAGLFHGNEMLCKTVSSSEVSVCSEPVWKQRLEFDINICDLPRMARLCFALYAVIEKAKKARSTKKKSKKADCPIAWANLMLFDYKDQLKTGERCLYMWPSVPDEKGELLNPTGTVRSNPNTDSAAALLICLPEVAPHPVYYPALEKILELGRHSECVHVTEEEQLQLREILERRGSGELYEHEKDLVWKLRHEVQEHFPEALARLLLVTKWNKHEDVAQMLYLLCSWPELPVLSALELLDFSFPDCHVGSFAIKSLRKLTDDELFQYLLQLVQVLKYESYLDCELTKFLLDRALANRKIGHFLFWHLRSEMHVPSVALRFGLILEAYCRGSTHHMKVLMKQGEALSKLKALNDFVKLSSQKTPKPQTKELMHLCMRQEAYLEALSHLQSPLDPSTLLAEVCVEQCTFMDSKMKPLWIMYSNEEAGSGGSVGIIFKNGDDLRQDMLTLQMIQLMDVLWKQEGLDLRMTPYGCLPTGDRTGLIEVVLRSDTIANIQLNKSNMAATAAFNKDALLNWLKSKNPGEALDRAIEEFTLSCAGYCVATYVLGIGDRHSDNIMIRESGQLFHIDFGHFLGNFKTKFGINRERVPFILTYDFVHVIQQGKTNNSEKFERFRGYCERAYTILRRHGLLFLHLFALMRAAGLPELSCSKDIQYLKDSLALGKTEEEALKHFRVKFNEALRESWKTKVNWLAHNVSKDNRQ
Chain of PIK3Cδ/PIK3R1 (P27986 whole entry partner): as the sequence (P27986 whole entry partner) above

PIK3Cγ = PIK3Cγ (Homo sapiens, UniProt P48736); conditions: cited from earlier work
Chain of PIK3Cγ (P48736 whole entry): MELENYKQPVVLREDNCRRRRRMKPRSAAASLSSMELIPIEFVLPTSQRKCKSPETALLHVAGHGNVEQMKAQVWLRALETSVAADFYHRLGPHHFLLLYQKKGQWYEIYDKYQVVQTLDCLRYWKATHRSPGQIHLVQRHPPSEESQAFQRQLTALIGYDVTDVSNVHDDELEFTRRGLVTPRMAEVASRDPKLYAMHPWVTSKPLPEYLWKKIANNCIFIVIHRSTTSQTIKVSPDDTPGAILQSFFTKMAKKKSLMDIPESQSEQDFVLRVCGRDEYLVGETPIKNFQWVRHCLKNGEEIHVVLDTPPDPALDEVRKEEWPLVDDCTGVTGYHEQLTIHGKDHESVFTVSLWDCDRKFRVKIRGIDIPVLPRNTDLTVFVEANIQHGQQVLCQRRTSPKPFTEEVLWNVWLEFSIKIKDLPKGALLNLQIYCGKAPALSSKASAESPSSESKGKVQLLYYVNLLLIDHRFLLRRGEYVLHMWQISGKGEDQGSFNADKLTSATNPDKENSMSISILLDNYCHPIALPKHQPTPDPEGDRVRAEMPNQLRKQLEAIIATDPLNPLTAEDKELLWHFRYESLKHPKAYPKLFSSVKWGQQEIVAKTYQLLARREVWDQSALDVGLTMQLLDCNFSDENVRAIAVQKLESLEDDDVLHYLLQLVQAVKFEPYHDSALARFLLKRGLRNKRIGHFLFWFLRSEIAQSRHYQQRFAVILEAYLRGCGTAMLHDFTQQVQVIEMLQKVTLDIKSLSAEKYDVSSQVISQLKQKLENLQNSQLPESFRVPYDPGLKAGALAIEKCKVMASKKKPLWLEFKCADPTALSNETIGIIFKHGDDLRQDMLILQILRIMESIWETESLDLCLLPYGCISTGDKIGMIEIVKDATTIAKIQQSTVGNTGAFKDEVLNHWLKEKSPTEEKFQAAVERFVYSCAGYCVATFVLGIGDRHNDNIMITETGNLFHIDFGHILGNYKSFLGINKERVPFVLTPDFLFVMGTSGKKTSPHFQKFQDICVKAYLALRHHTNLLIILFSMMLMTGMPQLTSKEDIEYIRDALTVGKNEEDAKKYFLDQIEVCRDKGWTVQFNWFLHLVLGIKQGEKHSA

CC(C)[C@H]1C(=O)N[C@H](CO)Cc2ccc(-c3ccc(NC(=O)OC(C)(C)C)cc3)cc2N1C
Kd (PKCalpha): 31.5 nM

CC(C)[C@H]1C(=O)N[C@H](CO)Cc2ccc(NC(=O)c3ccccc3)cc2N1C
Kd (PKCalpha): 174 nM

CC(C)[C@H]1C(=O)N[C@H](CO)Cc2ccc(NC(=O)/C=C/c3ccccc3)cc2N1C
Kd (PKCalpha): 114 nM

CC(C)[C@H]1C(=O)NC(CO)Cc2ccc(NC(=O)CCc3ccccc3)cc2N1C (some centres unmarked)
Kd (PKCalpha): 116 nM

CC(C)[C@H]1C(=O)N[C@H](CO)Cc2ccc(NC(=O)/C=C/C=C/c3ccccc3)cc2N1C
Kd (PKCalpha): 49.8 nM

CC(C)[C@H]1C(=O)N[C@H](CO)Cc2ccc(NC(=O)CCCCc3ccccc3)cc2N1C
Kd (PKCalpha): 18.3 nM

CC(C)[C@H]1C(=O)NC(CO)Cc2ccc(NC(=O)c3ccc(-c4ccccc4)cc3)cc2N1C (some centres unmarked)
Kd (PKCalpha): 25.9 nM

CCCCc1ccc(C(=O)Nc2ccc3c(c2)N(C)[C@@H](C(C)C)C(=O)NC(CO)C3)cc1 (some centres unmarked)
Kd (PKCalpha): 9.5 nM

CCCCC#Cc1cccc(C(=O)Nc2ccc3c(c2)N(C)[C@@H](C(C)C)C(=O)NC(CO)C3)c1 (some centres unmarked)
Kd (PKCalpha): 4.1 nM

CCCCCCCCc1cccc(C(=O)Nc2ccc3c(c2)N(C)[C@@H](C(C)C)C(=O)NC(CO)C3)c1 (some centres unmarked)
Kd (PKCalpha): 3.2 nM

CC(C)[C@H]1C(=O)NC(CO)Cc2ccc(NCc3ccccc3)cc2N1C (some centres unmarked)
Kd (PKCalpha): 3.8 nM

Cc1csc(-c2nnc(Nc3ccc(Oc4ncccc4-c4ccnc(N)n4)cc3)c3ccccc23)c1 [AMG900]
ka (AurA (AURKA)): 220000 M⁻¹ s⁻¹
kd (AurA (AURKA)): 0.000261 s⁻¹
log(ka) (AurA (AURKA)): 5.34
log(kd) (AurA (AURKA)): −3.58
Kd (AurB (AURKB)): 0.393 nM
ka (AurB (AURKB)): 58800 M⁻¹ s⁻¹
kd (AurB (AURKB)): 2.31e-05 s⁻¹

COc1ccc(-c2ccc3c(N4CCOC[C@@H]4C)nc(N4CCOC[C@@H]4C)nc3n2)cc1CO [AZD-8055]
Kd (PIK3Cα/PIK3R1): 9.4 nM
ka (PIK3Cα/PIK3R1): 3.61e+06 M⁻¹ s⁻¹
kd (PIK3Cα/PIK3R1): 0.0339 s⁻¹
log(ka) (PIK3Cα/PIK3R1): 6.56
log(kd) (PIK3Cα/PIK3R1): −1.47
residence time (τ) (PIK3Cα/PIK3R1): 29 s
Kd (PIK3Cδ/PIK3R1): 33.6 nM
ka (PIK3Cδ/PIK3R1): 1.93e+06 M⁻¹ s⁻¹
kd (PIK3Cδ/PIK3R1): 0.065 s⁻¹
log(ka) (PIK3Cδ/PIK3R1): 6.29
log(kd) (PIK3Cδ/PIK3R1): −1.19
residence time (τ) (PIK3Cδ/PIK3R1): 15 s
Kd (PIK3Cγ): 92.5 nM
ka (PIK3Cγ): 1.59e+06 M⁻¹ s⁻¹
kd (PIK3Cγ): 0.147 s⁻¹
log(ka) (PIK3Cγ): 6.20
log(kd) (PIK3Cγ): −0.83
residence time (τ) (PIK3Cγ): 7 s

Cc1nc(NC(=O)N2CCC[C@H]2C(N)=O)sc1-c1ccnc(C(C)(C)C(F)(F)F)c1 [Alpelisib]
ka (PIK3Cδ/PIK3R1): 6.16e+06 M⁻¹ s⁻¹
kd (PIK3Cδ/PIK3R1): 0.0641 s⁻¹
log(ka) (PIK3Cδ/PIK3R1): 6.79
log(kd) (PIK3Cδ/PIK3R1): −1.19
ka (PIK3Cγ): 4.05e+06 M⁻¹ s⁻¹
kd (PIK3Cγ): 0.0395 s⁻¹
log(ka) (PIK3Cγ): 6.61
log(kd) (PIK3Cγ): −1.40

Nc1cc(C(F)(F)F)c(-c2cc(N3CCOCC3)nc(N3CCOCC3)n2)cn1 [Buparlisib]
ka (PIK3Cα/PIK3R1): 3.26e+06 M⁻¹ s⁻¹
kd (PIK3Cα/PIK3R1): 0.0209 s⁻¹
log(ka) (PIK3Cα/PIK3R1): 6.51
log(kd) (PIK3Cα/PIK3R1): −1.68

Cn1c(=O)n(-c2ccc(C(C)(C)C#N)cc2)c2c3cc(-c4cnc5ccccc5c4)ccc3ncc21 [Dactolisib]
ka (PIK3Cα/PIK3R1): 2.3e+06 M⁻¹ s⁻¹
kd (PIK3Cα/PIK3R1): 0.0228 s⁻¹
log(ka) (PIK3Cα/PIK3R1): 6.36
log(kd) (PIK3Cα/PIK3R1): −1.64
ka (PIK3Cδ/PIK3R1): 1.52e+06 M⁻¹ s⁻¹
kd (PIK3Cδ/PIK3R1): 0.0327 s⁻¹
log(ka) (PIK3Cδ/PIK3R1): 6.16
log(kd) (PIK3Cδ/PIK3R1): −1.49
ka (PIK3Cγ): 589000 M⁻¹ s⁻¹
kd (PIK3Cγ): 0.0433 s⁻¹
log(ka) (PIK3Cγ): 5.77
log(kd) (PIK3Cγ): −1.36

CO[C@@H](C(=O)N1Cc2n[nH]c(NC(=O)c3ccc(N4CCN(C)CC4)cc3)c2C1)c1ccccc1 [Danusertib]
ka (AurA (AURKA)): 512000 M⁻¹ s⁻¹
kd (AurA (AURKA)): 0.000868 s⁻¹
log(ka) (AurA (AURKA)): 5.71
log(kd) (AurA (AURKA)): −3.06

CCn1cc(-c2ccnc3[nH]c(-c4cccc(CN(C)C)c4)cc23)c(-c2ccc(NC(=O)N(C)C)cc2)n1 [GSK1070916]
Kd (AurB (AURKB)): 4.48 nM
ka (AurB (AURKB)): 14000 M⁻¹ s⁻¹
kd (AurB (AURKB)): 6.28e-05 s⁻¹

O=C(O)[C@]1(Cc2cccc(Nc3nccs3)n2)CC[C@@H](Oc2cccc(Cl)c2F)CC1 [MK5108]
ka (AurA (AURKA)): 3.41e+06 M⁻¹ s⁻¹
kd (AurA (AURKA)): 0.0155 s⁻¹
log(ka) (AurA (AURKA)): 6.53 and 6.56
log(kd) (AurA (AURKA)): −1.81
